Source: patent US12410231B2, “Natural killer cell products and methods” (Board of Regents of The University of Texas System, priority 2018, dated 2025)

What was measured:
[1] = system: DNAM1, NKP30, NKP44, NKP46, NKG2D, CD16, Fas, FasL; assay: Immunophenotype of transduced NK cells (NK receptors, multiparameter flow cytometry); format: cell-based, human; conditions: rimiducid administration; data not shown
Text: FIGS. 18A-18E Phenotype of iMC transduced NK cells. […] MFI or the percentages of positive cells were normalized according the average value of non-transduced NK cells. […] Two-way ANOVAs were used to compare groups. P<0.0001. […] Transgene expression as indicated by CD19 positive percentage. Representative flow plots are shown in FIG. 18D and dot plots for N=4 in FIG. 18E. Paired t tests were used to compare groups. **p<0.01.
Transduced NKs or T cells were stained with anti-CD56-APCcy7 (NK) or anti-CD3-Percep.Cy5 (T) and anti-CD19-BV421 for iMC or iRC9 transgene expression. For CAR-transduced cells, anti-CD34 QBEnd-10-PE (Abnova) was used to determine transduction efficiency. […] All antibodies were purchased from Biolegend except otherwise stated. Flow cytometry was performed using NovoCyte flow cytometer and the data were analyzed using ACEA NovoExpress software (ACEA Biosciences Inc, San Diego, CA).
NK cell activating receptors are essential for NK cell activation and recognition of targets. Upon infection or malignant transformation, these ligands typically upregulate and activate NK cells for specific attack and elimination of target cells. […]

[2] = system: IFN-γ; assay: IFN-γ ELISA of supernatant, co-culture with k562; format: cell-based, human; conditions: rimiducid 0-100 nM
[3] = healthy volunteers; cited from earlier work
[4] = system: iRC9.IL15.iMC-transduced NKs; assay: Safety switch activation in vivo in NSG mice (BLI, spleen flow cytometry); set-up: species or system mouse
Experimental: (§1) FIGS. 25A-25D: Safety switch in NKs. […] FIG. 25A: Annexin V staining was assessed by flow cytometry analysis. FIG. 25B: Temsirolimus at various concentration was administrated for 24 hrs. 7AAD staining was assessed by flow cytometry. Cells were first gated as CD56+CD19+ for transduced cells, CD56+ for NT non-transduced NK cells. […] 4 Four mice were applied administered 1 mg/kg temsirolimus i.p., whereas 5 mice were administrated with same volume vehicle. Before injection and 24 hrs. later, firefly luciferase BLI was determined for to measure NK presence in vivo (FIG. 25E). Mice were then euthanized. Spleens were analyzed for the presence of NK cells by flow cytometry. NK cells were identified as hCD45+mCD45− populations (FIG. 25F). Transduced NKcells were identified as hCD45+mCD45-hCD56+hCD19+ populations (FIG. 25G). Student t test was used to do comparisonscompare groups. ***P<0.001.
To prevent potential uncontrolled expansion of the gene modified NK cells, as well as associated cytokine release syndrome (CRS) and GvHD, a suicide gene iRC9 was incorporated into the constructs. […] The suicide gene was also effective in vivo. Mice engrafted with THP-1 tumor received iRC9.IL15.iMC-transduced NKs labeled with oNL […] luciferase. Mice were then either treated with the dimerizer temsirolimus or vehicle control.

[5] = system: transduced NK cells; assay: Safety switch activation in NK cells in vitro (Annexin V, 7AAD, CD19 loss); format: cell-based, human; conditions: 10 nM temsirolimus
Experimental: as §1
FIG. 14—Caspase-9 activation ablates DS NK cells. NK cells from three separate donors were transduced with recombinant retroviruses 1664 (iMC+iRC9) or 1531 (iC9+iRMC) and expanded. […] After 24 hours NK cells were assayed for presence of the CD19 marker cotransduced with the switches. […] MFI=Mean fluorescence intensity of CD19 in flow cytometry, indicating a proportional growth advantage of highly expressing cells. […]

| SMILES | surface NK cell receptor expression [1] | IFN-γ production at the co-culture supernatant [2] | safety [3] | frequency of gene modified NK cells in the spleens ([4]; temsirolimus treated mice) | BLI signal of NK cells in vivo ([4]; within 24 hrs, temsirolimus 1 mg/kg i.p. vs vehicle) | apoptosis of transduced NK cells [5] | viability of non-transduced NK cells [5] |
| --- | --- | --- | --- | --- | --- | --- | --- |
| CC[C@H](C(=O)N1CCCC[C@H]1C(=O)O[C@H](CCc1ccc(OC)c(OC)c1)c1cccc(OCC(=O)NCCNC(=O)COc2cccc([C@@H](CCc3ccc(OC)c(OC)c3)OC(=O)[C@@H]3CCCCN3C(=O)[C@@H](CC)c3cc(OC)c(OC)c(OC)c3)c2)c1)c1cc(OC)c(OC)c(OC)c1 (relative stereo) [Rimiducid, 2-Piperidinecarboxylic acid, 1-[(2S)-1-oxo-2-(3,4,5-trimethoxyphenyl)butyl]-, 1,2-ethanediyIbis[imino(2-oxo-2,1-ethanediyl)oxy-3,1-phenylene[(1R)-3-(3,4-dimethoxyphenyl)propylidene]] ester, [2S-[1(R*),2R*[S*[S*[1(R*),2R*]]]]]-(9Cl)] | did not increase surface NK cell receptor expression | dramatically increased IFN-γ production at the co-culture supernatant in a dose-dependent manner | proven safe in healthy volunteers | – | – | – | – |
| CO[C@H]1C[C@@H]2CC[C@@H](C)[C@@](O)(O2)C(=O)C(=O)N2CCCC[C@H]2C(=O)O[C@H]([C@H](C)C[C@@H]2CC[C@@H](OC(=O)C(C)(CO)CO)[C@H](OC)C2)CC(=O)[C@H](C)/C=C(\C)[C@@H](O)[C@@H](OC)C(=O)[C@H](C)C[C@H](C)/C=C/C=C/C=C/1C [temsirolimus] | – | – | – | significantly reduced | dramatically reduced | induced apoptosis as early as 4 hrs | no effect |
